Source: BindingDB's records for doi:10.1021/jm010282t (Tohoku Pharmaceutical University, 2001)

Biological target: T1, Aromatase (Homo sapiens, UniProt P11511)
T1 sequence (P11511 whole entry): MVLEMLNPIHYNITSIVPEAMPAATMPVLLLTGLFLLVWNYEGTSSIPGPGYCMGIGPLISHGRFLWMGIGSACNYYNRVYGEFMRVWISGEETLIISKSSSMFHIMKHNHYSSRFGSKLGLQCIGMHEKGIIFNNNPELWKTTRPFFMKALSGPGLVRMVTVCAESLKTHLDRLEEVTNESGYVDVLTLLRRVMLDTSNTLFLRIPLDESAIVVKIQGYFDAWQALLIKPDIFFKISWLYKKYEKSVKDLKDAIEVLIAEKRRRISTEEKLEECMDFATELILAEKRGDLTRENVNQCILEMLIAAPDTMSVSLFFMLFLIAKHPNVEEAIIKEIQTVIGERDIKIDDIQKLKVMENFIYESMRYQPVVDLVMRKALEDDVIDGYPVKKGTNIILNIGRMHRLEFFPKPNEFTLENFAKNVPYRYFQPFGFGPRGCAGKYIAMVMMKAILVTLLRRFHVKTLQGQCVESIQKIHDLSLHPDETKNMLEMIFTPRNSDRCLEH
Assay: Aromatase Assay
Conditions: pH 7.5; 37 °C
Description: The enzyme activity was assayed by measuring the 3H-labeled H2O formed from [1beta-3H] Androstenedione during aromatization. After incubation, the reaction was terminated by CHCl3 extraction and centrifugation. Aliquots of the water phase were assayed for the presence of 3H2O by counting using a liquid scintillation spectrometer.

SMILES | IC50 | Ki
C[C@]12CCC3C(CCC4=CCCC[C@@]43CO)C1CCC2=O (stereo partly drawn) [(2S,15S)-2-(hydroxymethyl)-15-methyltetracyclo[8.7.0.0^{2,7}.0^{11,15}]heptadec-6-en-14-one] | 49 nM | 5.8 nM
C[C@]12CCC3C(CC=C4CCCC[C@@]43CO)C1CCC2=O (stereo partly drawn) [(2S,15S)-2-(hydroxymethyl)-15-methyltetracyclo[8.7.0.0^{2,7}.0^{11,15}]heptadec-7-en-14-one] | 6900 nM | 1000 nM
CC(=O)O[C@@H]1CCC[C@@]2(CO)C1=CCC1C2CC[C@]2(C)C(=O)CCC12 (stereo partly drawn) [(2S,6R,15S)-2-(hydroxymethyl)-15-methyl-14-oxotetracyclo[8.7.0.0^{2,7}.0^{11,15}]heptadec-7-en-6-yl acetate] | 11000 nM | 
C[C@]12CCCCC1=CCC1C2CC[C@]2(C)C(=O)CCC12 (stereo partly drawn) [(2R,15S)-2,15-dimethyltetracyclo[8.7.0.0^{2,7}.0^{11,15}]heptadec-7-en-14-one] | 660 nM | 120 nM
C[C@]12CCC3C(C[C@H](O)C4=CCCC[C@@]43CO)C1CCC2=O (stereo partly drawn) [(2S,8S,15S)-8-hydroxy-2-(hydroxymethyl)-15-methyltetracyclo[8.7.0.0^{2,7}.0^{11,15}]heptadec-6-en-14-one] | 1400 nM | 250 nM
CO[C@H]1CCC[C@@]2(CO)C1=CCC1C2CC[C@]2(C)C(=O)CCC12 (stereo partly drawn) [4beta-Methoxy-19-hydroxyandrost-5-en-17-one] | 150000 nM | 
C[C@]12CCC3C(C[C@@H](O)C4=CCCC[C@@]43CO)C1CCC2=O (stereo partly drawn) [6beta,19-dihydroxyandrost-4-en-17-one] | 940 nM | 110 nM
